From patent US10399924B2, “Deuterium substituted fumarate derivatives” (Biogen MA Inc., priority 2012, dated 2019)
pEC50: −log10 of the molar value. Counter-ions that a name gives are not always drawn. Like-named read-outs stand apart in the source and are kept apart here.

What was measured:
Nrf2-Keap1 Pathway = experiment: DiscoverRx PathHunter Nrf2-Keap1 nuclear translocation biosensor assay; format: cell-based; conditions: agonist mode, 6 hours incubation at room temperature; read-out: Nrf2 activation EC50
From the text: The PathHunter® Nuclear Translocation assay detects translocation of a target protein to, or from, the nucleus. In this system, Prolink™ (PK), a small enzyme fragment, is fused to the protein of interest and Enzyme Acceptor (EA) is localized in the nucleus. Activation of the signaling pathway induces the target protein to either transit into the nucleus, thus forcing complementation of the PK and EA fragments, or out of the nucleus, hindering complementation of the fragments. PathHunter Pathway cell lines were expanded from freezer stocks according to standard procedures. 5000 cells were seeded in Cell Plating Reagent 0 (containing 1% FBS) to a total volume of 20 μL into white walled, 384-well microplates and incubated for the overnight prior to testing. For Agonist determination, cells were incubated with sample to induce response. Dilution of sample stocks was performed to generate 100× sample in DMSO. […] Vehicle concentration was 1%. Assay signal was generated through a single addition of 25 μL (100% v/v) of PathHunter Flash Detection reagent, followed by a one hour incubation at room temperature. Microplates were read following signal generation with a PerkinElmer Envision™ instrument for chemiluminescent signal detection. Compound activity was analyzed using CBIS data analysis suite (ChemInnovation, CA). For agonist mode assays, percentage activity was calculated using the following formula: % Activity=100%×(mean RLU of test sample−mean RLU of vehicle control)/(mean MAX RLU control ligand−mean RLU of vehicle control).

[1] = Oral cassette co-administration PK with DMF in male SD rats (plasma, LC/MS/MS); conditions: equivalent oral dose of 50 mg/kg of DMF, same study
[2] = system: Nrf2 (ARE-luciferase reporter), DLD-1/ARE-E2; experiment: ARE-luciferase reporter assay of Nrf2 activation, DLD-1/ARE-E2 cells; format: cell-based, human; conditions: summary for DLD-1 and MCF-7 reporter cell lines
Experimental: Human cancer cell line DLD-1 and breast cancer cell line MCF7 reporter stable cell lines were generated by transfection with a firefly luciferase reporter construct harboring the luciferase cDNA cloned downstream of eight catenated copies of the antioxidant response element ([…] ID NO.:1). See Wang et al. Cancer Res. 2006; 66:10983-94. To measure Nrf2 activation in the ARE-luciferase reporter cell lines, the cells were plated in 96-well plates at 20-50 k cells/well 24 hours prior to stimulation with the test compounds. […] The reporter cells were harvested 24 hours-48 hours after addition of the compounds and lysed for detection of luciferase activity. Luciferase activity in the lysates was monitored using the Bright-Glo Luciferase Assay System of Promega and Tecan Genios Pro plate reader. Luciferase induction in the compound-treated cells was calculated as fold change over the baseline activity detected in control cultures treated with DMSO-containing media.

[3] = Oral PK at 100 mg/kg in male SD rats; conditions: in vivo, rat, read-out: half-life of MMF (converted)
Experimental: The concentration of the compounds was determined by LC/MS/MS. […] The concentration of D-MMF was determined by LC/MS/MS. […] The concentration of D-MMF was determined by LC/MS/MS.

pEC50 (Nrf2-Keap1 Pathway)	oral exposure compared to DMF [1]	half-life ([3]; male, SD, 100 mg/Kg oral dose) [min]	half-life ([3]; oral, 100 mg/Kg, species not stated for this figure) [min]	Structure (SMILES)	activation of ARE-dependent signaling of the luciferase reporter construct [2]
5.27				COC(=O)/C=C/C(=O)OC [DMF, dimethyl fumarate, reference compound]	
5.18	higher oral exposure			O=C(O)/C=C/C(=O)O.[2H]C([2H])([2H])OC(=O)/C=C/C(=O)OC([2H])([2H])[2H] [Example 1, (^2H6)dimethyl Fumaric Acid Ester]	able to activate ARE-dependent signaling
				O=C(O)/C=C/C(=O)O.[2H]C([2H])([2H])OC(=O)/C=C/C(=O)O [Example 2, (^2H3)methyl Fumaric Acid Ester]	able to activate ARE-dependent signaling
5.32	higher oral exposure			[2H]/C(C(=O)OC)=C(/[2H])C(=O)OC [Example 4]	
5.10	higher oral exposure			[2H]/C(C(=O)O)=C(/[2H])C(=O)O.[2H]/C(C(=O)OC([2H])([2H])[2H])=C(/[2H])C(=O)OC([2H])([2H])[2H] [Example 8]	
		54	~60	COC(=O)/C=C/C(=O)O [MMF, monomethyl fumarate]	
